Results as given in patent EP0244088A2, “1-Phenyl-3-benzazepine compounds and medicaments containing these compounds for treating gastrointestinal motility disorders” (SMITHKLINE BECKMAN CORPORATION, priority 1986, dated 1987).

These molecules were tested on lower esophageal sphincter (LES) (assay: Determination of LES pressure in the anesthetized dog). Details: Canis lupus familiaris, iv, Effective Dose 20 for increase in resting LES pressure, mean of individual ED20 values (N>=3), read-out: ED20 mcg/kg, i.v.
Format: in vivo, dogs
Procedure: Method for Determination of LES Pressure in the Anesthetized Dog
Mongrel or beagle dogs, male and female, are anesthetized using sodium pentobarbital (35.0 mg/kg., I.V.). Sodium pentobarbital is then continuously infused (approximatemated 6.0 mg/kg/hr) to maintain deep anesthesia. Blood pressure is monitored via a catheter surgically implanted into the femoral artery and attached to a Gould's P231D transducer. A catheter is also implanted into the femoral vein to administer test drugs. Respiration is maintained by an endotracheal tube attached to a respirator. A continuously perfused manometric catheter system including a Dent sleeve to measure sphincter pressure (Dent, Gastroenterology 7l: 263-267, l976) is inserted into the esophagus and positioned so that intraluminal pressure is recorded from the body of the esophagus, the lower esophageal sphincter (LES) and the fundus of the stomach. The Dent sleeve catheter is perfused at a rate of 0.5 ml of water per minute for each lumen of the catheter by using an Arndorfer Hydraulic Capillary Infusion System. A cannula is implanted into the gastric antrum to allow drainage of the perfusate solution and prevent intestinal distension. Continuous tracings of esophageal, LES and fundus pressure are monitored on a Grass Polygraph (Model 7D). Correct positioning of the Dent sleeve is verified by noting a high pressure zone at the LES and by administration of an intravenous dose of 5-HT (usually l0-l5 mcg/kg) which contracts the LES while having little or no recordable effect on either the body of the esophagus or the fundus. After verification of placement of the sleeve, the animal is allowed to stabilize for approximately 30 minutes.
Compounds are administered intravenously, intraduodenally or intragastrically. In most cases, succeeding doses of the same or different compounds are given only after the LES pressure has returned to approximate predosing baseline values. In all cases, the magnitude of change in LES pressure is determined from the baseline pressure immediately prior to each treatment to the maximum pressure during treatment. Since the compounds used usually produce an immediate effect on LES pressure, no pretreatment time prior to measurement is necessary during this testing.
Direct assay techniques are used to estimate an Effective Dose 20 (ED₂₀) for the test compound in individual animals. The mean ED₂₀ and 95% confidence limits are determined using the individual ED₂₀ values from a group of animals (N=≧3) that received the same treatment.
In the case of CN1CCc2cc(Cl)c(Cl)cc2C(c2ccccc2)C1 (stereo not shown) [compound 9], the ED20 is reported as 0.623 mg/kg. CS(=O)(=O)c1cc2c(cc1O)CCNCC2c1ccccc1 (stereo not drawn) [compound 2, 7-Hydroxy-8-methylsulfonyl-l-phenyl-2,3,4,5-tetrahydro-lH-3-benzazepine] gave an ED20 of 0.317 mg/kg. Work on COc1cc2c(cc1Br)CCN(C)CC2c1ccccc1 (stereo not drawn) [compound 8, 7-Bromo-8-methoxy-3-methyl-l-phenyl-2,3,4,5-tetrahydro-lH-3-benzazepine] yielded an ED20 of 0.079 mg/kg. For COCc1cc2c(cc1O)C(c1ccccc1)CNCC2 (stereo not drawn) [compound 13, 8-hydroxy-7-methoxymethyl-l-phenyl-2,3,4,5-tetrahydro-lH-3-benzazepine], the ED20 was less than 0.05 mg/kg. Oc1cc2c(cc1Br)CCNCC2c1ccccc1 (stereo not drawn) [compound 4, 7-Bromo-8-hydroxy-l-phenyl-2,3,4,5-tetrahydro-lH-3-benzazepine] was tested, and the ED20 was 0.016 mg/kg. Molecule Cc1cc2c(cc1O)C(c1ccc(O)cc1)CNCC2 (stereo not drawn) [compound 11, 8-Hydroxy-l-(4-hydroxyphenyl)-7-methyl-2,3,4,5-tetrahydro-lH-3-benzazepine] has an ED20 of 0.044 mg/kg. In the case of CSc1cc2c(cc1O)C(c1ccccc1)CNCC2 (stereo not drawn) [compound 6, 8-hydroxy-7-methylthio-l-phenyl-2,3,4,5-tetrahydro-lH-3-benzazepine], the ED20 is reported as 0.017 mg/kg. CS(=O)(=O)c1cc2c(cc1O)C(c1ccccc1)CNCC2 (stereo not drawn) [compound 3, 8-Hydroxy-7-methylsulfonyl-l-phenyl-2,3,4,5-tetrahydro-lH-3-benzazepine] was tested, and the ED20 was 0.05 mg/kg. CS(=O)(=O)Nc1cc2c(cc1O)CCNCC2c1ccccc1 (stereo not drawn) [compound 15, 7-hydroxy-8-methanesulfonamido-l-phenyl-2,3,4,5-tetrahydro-lH-3-benzazepine] gave an ED20 of 0.5 mg/kg. Cc1cc2c(cc1O)C(c1ccccc1)CNCC2 (stereo not drawn) [compound 5, 8-Hydroxy-7-methyl-l-phenyl-2,3,4,5-tetrahydro-lH-3-benzazepine] was tested, and the ED20 was 0.026 mg/kg. Oc1cc2c(cc1C(F)(F)F)CCNCC2c1ccccc1 (stereo not drawn) [compound 7, 8-Hydroxy-l-phenyl-7-trifluoromethyl-2,3,4,5-tetrahydro-lH-3-benzazepine] showed an ED20 of 0.02 mg/kg. Molecule CC(=O)Nc1cc2c(cc1O)C(c1ccccc1)CNCC2 (stereo not drawn) [compound 16, 7-Acetamido-8-hydroxy-l-phenyl-2,3,4,5-tetrahydro-lH-3-benzazepine] has an ED20 of less than 2 mg/kg. For Oc1cc2c(cc1O)C(c1ccccc1)CNCC2 (stereo not drawn) [compound 10, 7,8-dihydroxy-l-phenyl-2,3,4,5-tetrahydro-lH-3-benzazepine], the ED20 was 0.735 mg/kg. For Oc1cc(Cl)c2c(c1)C(c1ccccc1)CNCC2 (stereo not drawn) [compound 1, 6-Chloro-8-hydroxy-l-phenyl-2,3,4,5-tetrahydro-lH-3-benzazepine], the ED20 was 0.445 mg/kg. For OCc1cc2c(cc1O)C(c1ccccc1)CNCC2 (stereo not drawn) [compound 14, 8-hydroxy-7-hydroxymethyl-l-phenyl-2,3,4,5-tetrahydro-lH-3-benzazepine], the ED20 was 0.1 mg/kg.

Same assay, conditions: at 250 (mcg/kg per column head), i.g.
For COc1cc2c(cc1S(C)(=O)=O)CCNCC2c1ccccc1 (stereo not drawn) [compound 12, 8-Methoxy-7-methylsulfonyl-l-phenyl-2,3,4,5-tetrahydro-lH-3-benzazepine], the “change in LES pressure (baseline to maximum during treatment)” value was 15 mm Hg at 250 (i.g.).
